Columns and labels:
His-BIR3 (241-356, XIAP) = His-BIR3 (241-356, XIAP) (Homo sapiens (Human), UniProt P98170); experiment: XIAP-BIR3/SMAC Homogeneous Time Resolved Fluorescence (HTRF) Assay; type: binding; settings: fluorescein labeled SMAC peptide
Description: B. XIAP-BIR3/SMAC Homogeneous Time Resolved Fluorescence (HTRF) Assay
(§1) Assays were performed in black, flat-bottom, 384-well plates.

[1] = molecular target: His-BIR2-3 (125-356, C202A/C213G, XIAP) (Homo sapiens (Human), UniProt P98170, C202A/C213G); experiment: XIAP-BIR2-3 Dimeric SMAC Peptide Homogeneous Time Resolved Fluorescence (HTRF) Assay; type: binding; settings: fluorescein labeled dimeric SMAC peptide
Description: D. XIAP-BIR2-3 Dimeric SMAC Peptide Homogeneous Time Resolved Fluorescence (HTRF) Assay
as §1

Structure (SMILES) | IC50 (His-BIR3 (241-356, XIAP)) | IC50 [1]
CN[C@@H](C)C(=O)N[C@H](C(=O)N1Cc2cc(NC(=O)c3ccc(C(=O)N[C@H]4C[C@@H](C(=O)N[C@@H]5CCCc6ccccc65)N(C(=O)[C@@H](NC(=O)[C@H](C)NC)C(C)(C)C)C4)cc3)ccc2C[C@H]1C(=O)N[C@@H](COC)c1ccccc1)C(C)(C)C [Example 13, N^1-((S)-2-((S)-3,3-Dimethyl-2-((S)-2-(methylamino)propanamido)butanoyl)-3-(((R)-2-methoxy-1-phenylethyl)carbamoyl)-1,2,3,4-tetrahydroisoquinolin-7-yl)-N^4-((3S,5S)-1-((S)-3,3-dimethyl-2-((S)-2-(methylamino)propanamido)butanoyl)-5-(((R)-1,2,3,4-tetrahydronaphthalen-1-yl)carbamoyl)pyrrolidin-3-yl)terephthalamide] | 12 nM | 11 nM
CN[C@@H](C)C(=O)N[C@H](C(=O)N1Cc2cc(C(=O)Nc3ncc(C(=O)N[C@H]4C[C@@H](C(=O)N[C@@H]5CCCc6ccccc65)N(C(=O)[C@@H](NC(=O)[C@H](C)NC)C(C)(C)C)C4)s3)ccc2C[C@H]1C(=O)N[C@@H]1CCCc2ccccc21)C(C)(C)C [Example 21, (S)-2-((S)-3,3-Dimethyl-2-((S)-2-(methylamino)propanamido)butanoyl)-N^7-(5-(((3S,5S)-1-((S)-3,3-dimethyl-2-((S)-2-(methylamino)propanamido)butanoyl)-5-(((R)-1,2,3,4-tetrahydronaphthalen-1-yl)carbamoyl)pyrrolidin-3-yl)carbamoyl)thiazol-2-yl)-N^3-((R)-1,2,3,4-tetrahydronaphthalen-1-yl)-1,2,3,4-tetrahydroisoquinoline-3,7-dicarboxamide] | 17 nM | 6 nM
CN[C@@H](C)C(=O)N[C@H](C(=O)N1Cc2cc(C(=O)Nc3nc(C(=O)N[C@H]4C[C@@H](C(=O)N[C@@H]5CCCc6ccccc65)N(C(=O)[C@@H](NC(=O)[C@H](C)NC)C(C)(C)C)C4)co3)ccc2C[C@H]1C(=O)N[C@@H]1CCCc2ccccc21)C(C)(C)C [Example 22, (S)-2-((S)-3,3-Dimethyl-2-((S)-2-(methylamino)propanamido)butanoyl)-N^7-(4-(((3S,5S)-1-((S)-3,3-dimethyl-2-((S)-2-(methylamino)propanamido)butanoyl)-5-(((R)-1,2,3,4-tetrahydronaphthalen-1-yl)carbamoyl)pyrrolidin-3-yl)carbamoyl)oxazol-2-yl)-N^3-((R)-1,2,3,4-tetrahydronaphthalen-1-yl)-1,2,3,4-tetrahydroisoquinoline-3,7-dicarboxamide] | 14 nM | 4 nM
CN[C@@H](C)C(=O)N[C@H](C(=O)N1Cc2cc(C(=O)Nc3ccc4cc(C(=O)N[C@H]5C[C@@H](C(=O)N[C@@H]6CCCc7ccccc76)N(C(=O)[C@@H](NC(=O)[C@H](C)NC)C(C)(C)C)C5)[nH]c4c3)ccc2C[C@H]1C(=O)N[C@@H]1CCCc2ccccc21)C(C)(C)C [Example 24, (S)-2-((S)-3,3-Dimethyl-2-((S)-2-(methylamino)propanamido)butanoyl)-N^7-(2-(((3S,5S)-1-((S)-3,3-dimethyl-2-((S)-2-(methylamino)propanamido)butanoyl)-5-(((R)-1,2,3,4-tetrahydronaphthalen-1-yl)carbamoyl)pyrrolidin-3-yl)carbamoyl)-1H-indol-6-yl)-N^3-((R)-1,2,3,4-tetrahydronaphthalen-1-yl)-1,2,3,4-tetrahydroisoquinoline-3,7-dicarboxamide] | 93 nM | 33 nM
CCN[C@@H](C)C(=O)N[C@H](C(=O)N1Cc2cc(OCc3ccc(C(=O)NC4C[C@@H](C(=O)NC5CCCc6ccccc65)N(C(=O)[C@@H](NC(=O)[C@H](C)NC)C(C)(C)C)C4)cc3)ccc2C[C@H]1C(=O)NC1CCCc2ccccc21)C(C)(C)C (stereo partly drawn) [Example 39] | 89 nM | 65 nM
CN[C@@H](C)C(=O)N[C@H](C(=O)N1Cc2cc(NC(=O)c3ccc4c(ccn4C(=O)N[C@H]4C[C@@H](C(=O)N[C@@H]5CCCc6ccccc65)N(C(=O)[C@@H](NC(=O)[C@H](C)NC)C(C)(C)C)C4)c3)ccc2C[C@H]1C(=O)N[C@@H]1CCCc2ccccc21)C(C)(C)C [Example 49, N^5—((S)-2-((S)-3,3-Dimethyl-2-((S)-2-(methylamino)propanamido)butanoyl)-3-(((R)-1,2,3,4-tetrahydronaphthalen-1-yl)carbamoyl)-1,2,3,4-tetrahydroisoquinolin-7-yl)-N^1-((3S,5S)-1-((S)-3,3-dimethyl-2-((S)-2-(methylamino)propanamido)butanoyl)-5-(((R)-1,2,3,4-tetrahydronaphthalen-1-yl)carbamoyl)pyrrolidin-3-yl)-1H-indole-1,5-dicarboxamide] | 51 nM | 22 nM
CN[C@@H](C)C(=O)N[C@H](C(=O)N1Cc2cc(NC(=O)c3cccc4c3ccn4C(=O)N[C@H]3C[C@@H](C(=O)N[C@@H]4CCCc5ccccc54)N(C(=O)[C@@H](NC(=O)[C@H](C)NC)C(C)(C)C)C3)ccc2C[C@H]1C(=O)N[C@H](C)c1ccccc1F)C(C)(C)C [Example 51] | 54 nM | 27 nM
CN[C@@H](C)C(=O)N[C@H](C(=O)N1Cc2cc(NC(=O)c3cccc4c3ccn4C(=O)N[C@H]3C[C@@H](C(=O)N[C@@H]4CCCc5ccccc54)N(C(=O)[C@@H](NC(=O)[C@H](C)NC)C(C)(C)C)C3)ccc2C[C@H]1C(=O)N[C@@H]1CCCc2ccccc21)C(C)(C)C [Example 54, N^4-((S)-2-((S)-3,3-Dimethyl-2-((S)-2-(methylamino)propanamido)butanoyl)-3-(((R)-1,2,3,4-tetrahydronaphthalen-1-yl)carbamoyl)-1,2,3,4-tetrahydroisoquinolin-7-yl)-N^1-((3S,5S)-1-((S)-3,3-dimethyl-2-((S)-2-(methylamino)propanamido)butanoyl)-5-(((R)-1,2,3,4-tetrahydronaphthalen-1-yl)carbamoyl)pyrrolidin-3-yl)-1H-indole-1,4-dicarboxamide] | 76 nM | 21 nM
CN[C@@H](C)C(=O)N[C@H](C(=O)N1C[C@@H](NC(=O)c2ccc(C(=O)Nc3ccc4c(c3)CN(C(=O)[C@@H](NC(=O)[C@H](C)NC)C(C)(C)SC)[C@H](C(=O)N[C@@H]3CCCc5ccccc53)C4)cc2)C[C@H]1C(=O)N[C@@H]1CCCc2ccccc21)C(C)(C)C [Example 55, N^1-((3S,5S)-1-((S)-3,3-Dimethyl-2-((S)-2-(methylamino)propanamido)butanoyl)-5-(((R)-1,2,3,4-tetrahydronaphthalen-1-yl)carbamoyl)pyrrolidin-3-yl)-N^4—((S)-2-((R)-3-methyl-2-((S)-2-(methylamino)propanamido)-3-(methylthio)butanoyl)-3-(((R)-1,2,3,4-tetrahydronaphthalen-1-yl)carbamoyl)-1,2,3,4-tetrahydroisoquinolin-7-yl)terephthalamide] | 9 nM | 4 nM
CN[C@@H](C)C(=O)N[C@H](C(=O)N1C[C@@H](NC(=O)c2ccc(C(=O)Nc3ccc4c(c3)CN(C(=O)[C@@H](NC(=O)[C@H](C)NC)C(C)(C)SCC(=O)OC)[C@H](C(=O)N[C@@H]3CCCc5ccccc53)C4)cc2)C[C@H]1C(=O)N[C@@H]1CCCc2ccccc21)C(C)(C)C [Example 56, Methyl 2-(((R)-4-((S)-7-(4-(((3S,5S)-1-((S)-3,3-dimethyl-2-((S)-2-(methylamino)propanamido)butanoyl)-5-(((R)-1,2,3,4-tetrahydronaphthalen-1-yl)carbamoyl)pyrrolidin-3-yl)carbamoyl)benzamido)-3-(((R)-1,2,3,4-tetrahydronaphthalen-1-yl)carbamoyl)-3,4-dihydroisoquinolin-2(1H)-yl)-2-methyl-3-((S)-2-(methylamino)propanamido)-4-oxobutan-2-yl)thio)acetate] | 17 nM | 12 nM
CN[C@@H](C)C(=O)N[C@H](C(=O)N1C[C@@H](NC(=O)c2ccc(C(=O)Nc3ccc4c(c3)CN(C(=O)[C@@H](NC(=O)[C@H](C)NC)C(C)(C)SCC(=O)O)[C@H](C(=O)N[C@@H]3CCCc5ccccc53)C4)cc2)C[C@H]1C(=O)N[C@@H]1CCCc2ccccc21)C(C)(C)C [Example 57, 2-(((R)-4-((S)-7-(4-(((3S,5S)-1-((S)-3,3-Dimethyl-2-((S)-2-(methylamino)propanamido)butanoyl)-5-(((R)-1,2,3,4-tetrahydronaphthalen-1-yl)carbamoyl)pyrrolidin-3-yl)carbamoyl)benzamido)-3-(((R)-1,2,3,4-tetrahydronaphthalen-1-yl)carbamoyl)-3,4-dihydroisoquinolin-2(1H)-yl)-2-methyl-3-((S)-2-(methylamino)propanamido)-4-oxobutan-2-yl)thio)acetic acid] | 10 nM | 6 nM
CN[C@@H](C)C(=O)N[C@H](C(=O)N1C[C@@H](NC(=O)c2ccc(C(=O)Nc3ccc4c(c3)CN(C(=O)[C@@H](NC(=O)[C@H](C)NC)C(C)(C)SCC(=O)N3CCCCC3)[C@H](C(=O)N[C@@H]3CCCc5ccccc53)C4)cc2)C[C@H]1C(=O)N[C@@H]1CCCc2ccccc21)C(C)(C)C [Example 58, N^1-((3S,5S)-1-((S)-3,3-Dimethyl-2-((S)-2-(methylamino)propanamido)butanoyl)-5-(((R)-1,2,3,4-tetrahydronaphthalen-1-yl)carbamoyl)pyrrolidin-3-yl)-N^4—((S)-2-((R)-3-methyl-2-((S)-2-(methylamino)propanamido)-3-((2-oxo-2-(piperidin-1-yl)ethyl)thio)butanoyl)-3-(((R)-1,2,3,4-tetrahydronaphthalen-1-yl)carbamoyl)-1,2,3,4-tetrahydroisoquinolin-7-yl)terephthalamide] | 27 nM | 18 nM
